Reference: patent US11919898B2, “Crystal form of azaindole derivative and use thereof” (Wuxi Life Fountain Biotech Co., Ltd, priority 2020, dated 2024)
Read-outs that look alike come from different tables or passages of the source.

Columns and labels:
[1] = Pharmacokinetic evaluation in rats (intravenous and oral); type: in vivo, male SD rats
Experimental: For agents for intravenous administration, 30% (v/v) PEG400 in purified water was as a vehicle. An appropriate amount of compound was accurately weighed into a glass flask, 30 vol % of PEG400 of the container volume was slowly added to the container with stirring, and then the remaining 70 vol % of pure water was added to make up to the final volume and stirred continuously until a clear solution was obtained. The solution was filtered through a […] filter membrane, and stored at room temperature for later use. The agents for intravenous administration were formulated on the day of administration, and injected into male SD rats via tail vein (fasted overnight before administration) at a dose of 0.5 mg/kg. Approximately 0.18 mL of blood was collected from the jugular vein or tail vein at 0.0833, 0.25, 0.5, 1.0, 2.0, 4.0, 8.0 and 24 hrs after intravenous administration. The corresponding test compound in the vehicle was administered by gavage to male SD rats (fasted overnight before administration) at a dose of 5 mg/kg. The experimental conditions are detailed in Table 20. Blood was collected from the jugular or tail vein at 0.0833, 0.25, 0.5, 1.0, 2.0, 4.0, 6.0, 8.0 and 24 hrs after oral administration. The blood was fed to an anticoagulation tube supplemented with EDTA-K2, and centrifuged to separate plasma. The plasma concentrations were determined by LC-MS/MS, and the relevant pharmacokinetic parameters were calculated by the linear logarithmic trapezoid method of non-compartmental model using WinNonlm™ Version 6.3 (Pharsight, Mountain View, CA) pharmacokinetic software.

[2] = Solid stability test (high temperature, high humidity, light, accelerated); type: physicochemical
Experimental: High Performance Liquid Chromatography (HPLC) of the Present Invention [table] Experimental method: 12 parallel samples of the crystal form A of the compound of formula (II) were weighed in an amount of about 1 g each. Each sample was fed to a double-layer LDPE bag, and each layer of the LDPE bag was tied and sealed. […] The photostability experiment was carried out as described in the Chinese Pharmacopoeia and ICH Q1B. The samples were irradiated with visible light and UV light.

[3] = Hygroscopicity test by dynamic vapor sorption (DVS); type: physicochemical
Experimental: Dynamic Vapor Sorption (DVS) of the Present Invention • Instrument model: SMS DVS Intrinsic Dynamic Vapor Sorption Analyzer • Test method: A sample (10-30 mg) is tested in a DVS sample pan. Detailed DVS Parameters: • Temperature: 25° C. • Equilibration: dm/dt=0.002%/min (Minimum: 10 min, Maximum: 180 min) • RH (%) test interval: 10 (0-90%), 5 (90-95%) • RH (%) test interval range: 0-95-0 Hygroscopicity evaluations are classified as follows: [table] Note: AW % represents the hygroscopic weight gain of the test product at 25° C./80% RH. Experimental Method: • 10-30 mg of the crystal form A of the compound of Formula (II) was placed in the DVS sample pan and tested. Experimental Method: • 10-30 mg of the crystal form G of the compound of Formula (III) was placed in the DVS sample pan and tested. Experimental Method: • 10-30 mg of the crystal form J of the compound of Formula (IV) was placed in the DVS sample pan and tested.

[4] = Stability comparison of crystal form A and crystal form B (slurry in ethanol, XRPD); type: physicochemical; settings: from conversion in ethanol, 16 hrs
From the text: 35 g of the crystal form B of the compound of Formula (II) was weighed, added to ethanol, and stirred for 16 hrs.

[5] = target: T1, human FGFR1 (Homo sapiens, UniProt P11362); assay: 33P isotope-labeled kinase activity assay, FGFR1; type: biochemical; settings: ATP 5 μM
T1 construct: purchased Invitrogen PV3146
T1 sequence (P11362 22-822): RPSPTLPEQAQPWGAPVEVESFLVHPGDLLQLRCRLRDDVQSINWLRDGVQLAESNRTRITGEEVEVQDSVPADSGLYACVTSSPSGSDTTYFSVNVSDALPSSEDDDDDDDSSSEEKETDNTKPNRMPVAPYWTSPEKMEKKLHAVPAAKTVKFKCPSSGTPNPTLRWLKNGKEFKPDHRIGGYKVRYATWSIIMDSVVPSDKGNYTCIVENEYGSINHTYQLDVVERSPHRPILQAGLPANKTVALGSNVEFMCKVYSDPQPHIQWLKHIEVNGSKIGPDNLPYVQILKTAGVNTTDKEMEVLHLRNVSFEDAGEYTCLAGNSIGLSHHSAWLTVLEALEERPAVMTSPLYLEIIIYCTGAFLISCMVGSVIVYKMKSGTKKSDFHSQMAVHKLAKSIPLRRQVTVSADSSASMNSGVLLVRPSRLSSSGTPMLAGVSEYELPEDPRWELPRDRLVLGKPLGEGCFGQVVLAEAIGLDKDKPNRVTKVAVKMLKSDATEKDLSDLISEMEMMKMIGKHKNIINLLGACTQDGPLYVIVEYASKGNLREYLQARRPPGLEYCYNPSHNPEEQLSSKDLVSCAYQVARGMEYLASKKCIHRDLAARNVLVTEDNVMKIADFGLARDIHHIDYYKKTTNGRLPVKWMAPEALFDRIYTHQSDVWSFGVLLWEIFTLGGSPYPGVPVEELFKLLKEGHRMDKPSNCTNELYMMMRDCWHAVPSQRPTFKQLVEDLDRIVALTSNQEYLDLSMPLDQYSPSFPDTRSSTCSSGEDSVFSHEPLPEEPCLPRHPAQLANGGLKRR
Experimental: The IC50 value was tested by ^33P isotope-labeled kinase activity assay (Reaction Biology Corp) to evaluate the inhibition of the test compounds on human FGFR1, FGFR4, and c-Met.
Buffer: 20 mM Hepes (pH 7.5), 10 mM MgCl2, 1 mM EGTA, 0.02% Brij35, 0.02 mg/ml BSA, 0.1 mMNa3VO4, 2 mM DTT, and 1% DMSO.
Test procedure: At room temperature, the test compound was dissolved in DMSO to prepare a 10 mM solution for use. The substrate was dissolved in freshly prepared buffer, and the test kinase was added and mixed well. A solution of the test compound in DMSO was added to the mixed reaction solution using an acoustic technology (Echo550). […] After 15 min of incubation, ^33P-ATP (with an activity of 0.01 μCi/nL, the corresponding concentration is listed in Table 18) was added to start the reaction. […] The kinase activity data were expressed by the comparison of the kinase activity in the presence of the test compound with the kinase activity of the blank group (containing only DMSO), and an IC50 value was obtained by curve fitting with Prism4 software (GraphPad).

[6] = intravenous, 0.5 mg/kg, male SD rats
[7] = oral (gavage), 5 mg/kg, male SD rats
[8] = rat, plasma, PO, 5 mg/kg, male SD rats (table title says mice)
[9] = Acceleration experiment (40° C./relative humidity 75%, open), 1 month
[10] = Acceleration experiment (40° C./relative humidity 75%, open), 2 month
[11] = Acceleration experiment (40° C./relative humidity 75%, open), 3 month
[12] = High humidity (room temperature/relative humidity 92.5%, open), Day 5
[13] = High humidity (room temperature/relative humidity 92.5%, open), Day 10
[14] = High humidity (room temperature/relative humidity 92.5%, open), Day 30
[15] = High temperature (60° C., open), Day 5
[16] = High temperature (60° C., open), Day 10
[17] = High temperature (60° C., open), Day 30
[18] = Light irradiation (1.2 × 10^6 Lux·hr / near ultraviolet 200 w·hr/m^2, open 10 days), light irradiation sample
[19] = Light irradiation test, sample in the dark

COc1cc(OC)c(F)c(Cc2c[nH]c3ncc(-c4cnn(CCO)c4)cc23)c1F.Cl
Drug exposure [1, 6]: high level | Volume of distribution [1, 6]: high | clearance [1, 6]: moderately low | half-life [1, 6]: moderate | Oral exposure [1, 7]: high level | Oral exposure level compared with other salt crystal forms [1, 7]: higher than that of the crystal form G of the compound of Formula (III), and the crystal form J of the compound of Formula (III) | Peak time [1, 7]: rapid | AUC(0-t) ([1]; rat, plasma, IV, 0.5 mg/kg, male SD rats (table title says mice)): 1.01 µM·h | clearance ([1]; rat, plasma, IV, 0.5 mg/kg, male SD rats (table title says mice), read-out: Cl): 18.4 mL/min/kg | half-life ([1]; rat, plasma, IV, 0.5 mg/kg, male SD rats (table title says mice), read-out: T1/2 (converted)): 79.2 min | Vd ([1]; rat, plasma, IV, 0.5 mg/kg, male SD rats (table title says mice), read-out: Vdss): 1.87 L/kg | AUC(0-t) [1, 8]: 5.18 µM·h | Cmax [1, 8]: 1960 nM | Tmax [1, 8]: 30 min | Content (%) [2, 9]: 99.7% | Total impurity (%) [2, 9]: 0.67% | Content (%) [2, 10]: 99.7% | Total impurity (%) [2, 10]: 0.69% | Content (%) [2, 11]: 99.9% | Total impurity (%) [2, 11]: 0.68% | Content (%) ([2]; Day 0): 99.8% | Total impurity (%) ([2]; Day 0): 0.71% | Content (%) [2, 12]: 99.6% | Total impurity (%) [2, 12]: 0.75% | Content (%) [2, 13]: 99.8% | Total impurity (%) [2, 13]: 0.71% | Content (%) [2, 14]: 98.9% | Total impurity (%) [2, 14]: 0.65% | Content (%) [2, 15]: 99.6% | Total impurity (%) [2, 15]: 0.78% | Content (%) [2, 16]: 99.9% | Total impurity (%) [2, 16]: 0.76% | Content (%) [2, 17]: 98.5% | Total impurity (%) [2, 17]: 0.80% | Content (%) [2, 18]: 99.8% | Total impurity (%) [2, 18]: 0.76% | Content (%) [2, 19]: 99.8% | Total impurity (%) [2, 19]: 0.79% | Solid stability in words ([2]; accelerated conditions and affecting factors): very stable, and no obvious unknown impurities are formed | ΔW, hygroscopic weight gain ([3]; 25° C. and 80% RH, DVS): 0.3710% | Classification of hygroscopicity ([3]; 25° C./80% RH): slightly hygroscopic | Relative stability of crystal forms [4]: more stable than the crystal form B of the compound of Formula (II) | IC50 [5]: 0.2 nM
